Assay [1] has as its target EGFR (WT) (Homo sapiens (Human), UniProt P00533). The assay can be described thus: Omnia biochemical assay, EGFR-WT active enzyme. As to conditions: [EGFR-WT]=5 nM, [ATP]=15 uM, 30 min pre-incubation. As for the experimental part: Kinase reactions were started with the addition of 45 μL of the ATP/Tyr-Sox peptide substrate mix and monitored every 71 seconds for 60 minutes at λex360/λem485 in a Synergy^4 plate reader from BioTek (Winooski, Vt.).
The compound numbers correspond to the compound numbers in Table 1.

For assay [2], the system named is HCC827 cells (EGFR delE746-A750). Nature of the assay: Cell proliferation (CellTiter Glo), HCC827 cells.
Method: (§1) A431 human epidermoid carcinoma, H1975 human NSCLC and HCC827 human NSCLC adenocarcinoma cells were obtained from the American Type Culture Center (Manassas, Va.). A431 cells were grown in DMEM (Invitrogen, Carlsbad, Calif.) supplemented with 10% FBS (HyClone, South Logan, Utah) and 1% Penicillin-Streptomycin (P/S, Lonza, Walkersville, Md.).
(§2) Cells were plated in Growth Media supplemented with 5% FBS and 1% P/S at a density of 3,000 cells per well in 96 well tissue culture plates (Corning). […] Growth inhibition (GI50) values were determined by Graph Pad Prism.
Assay [3] relates to H1975 cells (EGFR L858R/T790M). The assay can be described thus: Cell proliferation (CellTiter Glo), H1975 cells.
Method: as §1, §2
Setting [4] is: proliferation GI50 WT EGFR / HCC827.
Setting [5] is: proliferation GI50 WT EGFR / H1975.

Molecules are shown by their SMILES. Where two headings read alike, the source gives them in different places.

Chain of EGFR (WT) (P00533 25-1210): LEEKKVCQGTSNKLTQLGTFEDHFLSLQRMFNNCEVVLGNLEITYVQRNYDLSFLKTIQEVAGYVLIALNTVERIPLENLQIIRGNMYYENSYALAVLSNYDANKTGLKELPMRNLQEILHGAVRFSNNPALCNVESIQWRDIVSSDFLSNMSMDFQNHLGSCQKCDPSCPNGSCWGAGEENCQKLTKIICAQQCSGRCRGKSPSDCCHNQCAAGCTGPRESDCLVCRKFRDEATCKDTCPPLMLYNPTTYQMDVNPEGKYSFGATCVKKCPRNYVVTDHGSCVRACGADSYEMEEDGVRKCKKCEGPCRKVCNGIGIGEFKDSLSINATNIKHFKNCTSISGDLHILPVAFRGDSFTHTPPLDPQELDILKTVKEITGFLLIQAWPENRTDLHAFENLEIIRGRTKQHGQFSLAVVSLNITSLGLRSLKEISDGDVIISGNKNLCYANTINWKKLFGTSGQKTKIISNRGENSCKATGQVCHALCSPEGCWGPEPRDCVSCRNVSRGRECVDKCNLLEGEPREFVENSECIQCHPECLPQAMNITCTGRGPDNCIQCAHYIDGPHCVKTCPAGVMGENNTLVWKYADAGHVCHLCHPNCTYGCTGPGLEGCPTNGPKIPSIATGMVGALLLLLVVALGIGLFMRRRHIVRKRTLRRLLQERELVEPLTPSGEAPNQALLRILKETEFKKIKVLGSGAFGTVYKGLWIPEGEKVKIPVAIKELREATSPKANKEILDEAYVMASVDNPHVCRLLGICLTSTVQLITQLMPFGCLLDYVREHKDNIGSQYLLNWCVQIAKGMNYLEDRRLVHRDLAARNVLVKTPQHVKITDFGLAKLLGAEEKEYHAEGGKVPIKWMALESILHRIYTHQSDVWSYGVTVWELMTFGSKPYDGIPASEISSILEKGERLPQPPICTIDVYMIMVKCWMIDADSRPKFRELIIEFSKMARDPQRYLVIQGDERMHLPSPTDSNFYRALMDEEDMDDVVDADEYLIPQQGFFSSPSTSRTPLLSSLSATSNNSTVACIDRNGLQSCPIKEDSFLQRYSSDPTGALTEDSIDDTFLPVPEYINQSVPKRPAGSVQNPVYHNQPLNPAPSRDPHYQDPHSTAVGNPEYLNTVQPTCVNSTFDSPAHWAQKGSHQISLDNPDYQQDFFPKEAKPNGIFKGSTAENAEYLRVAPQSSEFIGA

As for `C=CC(=O)Nc1cccc(Nc2nc(Nc3ccc(N4CCCOCC4)cc3OC)ncc2C(F)(F)F)c1` [Compound I-38, N-(3-(2-(2-methoxy-4-(1,4-oxazepan-4-yl)phenylamino)-5-(trifluoromethyl)pyrimidin-4-ylamino)phenyl)acrylamide], in assay [1], the half-inhibitory concentration (IC50) lay in the range of 10 to 30 nM. Further, the “Ratio WT/mutant (HCC827)” value in assay [2] (setting [4]) is given as over 5. Moreover, in assay [3] (setting [5]), the “Ratio WT/mutant (H1975)” value was over 1.
Turning to `C=CC(=O)Nc1cccc(Oc2nc(Nc3ccc(N4CCCOCC4)cc3OC)ncc2Cl)c1` [Compound I-37, N-(3-(5-chloro-2-(2-methoxy-4-(1,4-oxazepan-4-yl)phenylamino)pyrimidin-4-yloxy)phenyl)acrylamide], the IC50 in assay [1] was 30 to 100 nM. Further, in assay [2] (setting [4]), the “Ratio WT/mutant (HCC827)” value is listed as over 10. Further, the “Ratio WT/mutant (H1975)” value in assay [3] (setting [5]) is over 1.
In the same order, the values of `C=CC(=O)Nc1cccc(Nc2nc(Nc3ccc(N4CCCN(C(=O)C(F)(F)F)CC4)cc3OC)ncc2C(F)(F)F)c1` [Compound I-19, N-(3-(2-(2-methoxy-4-(4-(2,2,2-trifluoroacetyl)-1,4-diazepan-1-yl)phenylamino)-5-(trifluoromethyl)pyrimidin-4-ylamino)phenyl)acrylamide] are 100 to 300 nM, over 10 and over 5.
For `C=CC(=O)Nc1cccc(Oc2nc(Nc3ccc(N4CCCN(C(=O)OC(C)(C)C)CC4)cc3OC)ncc2Cl)c1` [Compound I-43, tert-butyl 4-(4-(4-(3-acrylamidophenoxy)-5-chloropyrimidin-2-ylamino)-3-methoxyphenyl)-1,4-diazepane-1-carboxylate], the IC50 in assay [1] lay within 300 to 1000 nM.
Turning to `C=CC(=O)Nc1cccc(Nc2nc(Nc3ccc(N4CCN(C(=O)OC(C)(C)C)[C@H](C(=O)OC)C4)cc3OC)ncc2C(F)(F)F)c1` [Compound I-50, (S)-1-tert-butyl 2-methyl 4-(4-(4-(3-acrylamidophenylamino)-5-(trifluoromethyl)pyrimidin-2-ylamino)-3-methoxyphenyl)piperazine-1,2-dicarboxylate], the “Ratio WT/mutant (HCC827)” value in assay [2] (setting [4]) is reported as over 50. The “Ratio WT/mutant (H1975)” value in assay [3] (setting [5]) is over 10.
Turning to `C=CC(=O)Nc1cccc(Nc2nc(Nc3ccc(N4CCN(C(=O)NC)CC4)cc3OC)ncc2C(F)(F)F)c1` [Compound I-28, 4-(4-(4-(3-acrylamidophenylamino)-5-(trifluoromethyl)pyrimidin-2-ylamino)-3-methoxyphenyl)-N-methylpiperazine-1-carboxamide], the 50% inhibitory concentration (IC50) in assay [1] lay within 1 to 10 nM. Further, the “Ratio WT/mutant (HCC827)” value in assay [2] (setting [4]) was over 50. Also, the “Ratio WT/mutant (H1975)” value in assay [3] (setting [5]) is on record as over 5.
As for `C=CC(=O)Nc1cccc(Oc2nc(Nc3ccc(N4CCCN(C(=O)OC(C)(C)C)CC4)cc3OC)ncc2C(F)(F)F)c1` [Compound I-39, tert-butyl 4-(4-(4-(3-acrylamidophenoxy)-5-(trifluoromethyl)pyrimidin-2-ylamino)-3-methoxyphenyl)-1,4-diazepane-1-carboxylate], the IC50 in assay [1] is over 1000 nM. In addition, the “Ratio WT/mutant (HCC827)” value in assay [2] (setting [4]) is over 1. Also, the “Ratio WT/mutant (H1975)” value in assay [3] (setting [5]) is under 1.
In the case of `C=CC(=O)Nc1cccc(Oc2nc(Nc3ccc(N4CCOCC4)cc3OC(F)F)ncc2Cl)c1` [Compound I-36, N-(3-(5-chloro-2-(2-(difluoromethoxy)-4-morpholinophenylamino)pyrimidin-4-yloxy)phenyl)acrylamide], in assay [1], the half-inhibitory concentration (IC50) was 10 to 30 nM. Also, in assay [2] (setting [4]), the “Ratio WT/mutant (HCC827)” value is over 50. For the same molecule, the “Ratio WT/mutant (H1975)” value in assay [3] (setting [5]) was over 25.
Regarding `C=CC(=O)Nc1cccc(Oc2nc(Nc3ccc(N4CCN(C(=O)OC(C)(C)C)CC4)cc3OC)ncc2C(F)(F)F)c1` [Compound I-42, tert-butyl 4-(4-(4-(3-acrylamidophenoxy)-5-(trifluoromethyl)pyrimidin-2-ylamino)-3-methoxyphenyl)piperazine-1-carboxylate], the IC50 in assay [1] lay in the range of 300 to 1000 nM.
Turning to `C=CC(=O)Nc1cccc(Oc2nc(Nc3ccc(N4CCN(C(=O)OC)CC4)cc3OC)ncc2C(F)(F)F)c1` [Compound I-20, methyl 4-(4-(4-(3-acrylamidophenoxy)-5-(trifluoromethyl)pyrimidin-2-ylamino)-3-methoxyphenyl)piperazine-1-carboxylate], the IC50 in assay [1] is 10 to 30 nM. Further, the “Ratio WT/mutant (HCC827)” value in assay [2] is over 15. For the same molecule, the “Ratio WT/mutant (H1975)” value in assay [3] was over 5.
For the molecule `C=CC(=O)Nc1cccc(Nc2nc(Nc3ccc(N4CCN(C(=O)CO)CC4)cc3OC(F)F)ncc2C(F)(F)F)c1` [Compound I-31, N-(3-(2-(2-(difluoromethoxy)-4-(4-(2-hydroxyacetyl)piperazin-1-yl)phenylamino)-5-(trifluoromethyl)pyrimidin-4-ylamino)phenyl)acrylamide], the IC50 in assay [1] is under 1 nM.
`C=CC(=O)Nc1cccc(Oc2nc(Nc3ccc(N4CCN(C(=O)OC(C)(C)C)CC4)cc3OCC)ncc2Cl)c1` [Compound I-18, tert-butyl 4-(4-(4-(3-acrylamidophenoxy)-5-chloropyrimidin-2-ylamino)-3-ethoxyphenyl)piperazine-1-carboxylate]: the IC50 in assay [1] was over 1000 nM. The “Ratio WT/mutant (HCC827)” value in assay [2] (setting [4]) is over 5. For the same molecule, the “Ratio WT/mutant (H1975)” value in assay [3] (setting [5]) is recorded as over 1.
Regarding `C=CC(=O)Nc1cccc(Oc2nc(Nc3ccc(N4CCN(C(=O)OC(C)(C)C)CC4)cc3OC(F)(F)F)ncc2Cl)c1` [Compound I-47, tert-butyl 4-(4-(4-(3-acrylamidophenoxy)-5-chloropyrimidin-2-ylamino)-3-(trifluoromethoxy)phenyl)piperazine-1-carboxylate], the concentration for half-maximal inhibition (IC50) in assay [1] is over 1000 nM.
For `C=CC(=O)Nc1cccc(Oc2nc(Nc3ccc(N4CCN(C(=O)CC(C)(C)C)CC4)cc3OC)ncc2Cl)c1` [Compound I-23, N-(3-(5-chloro-2-(4-(4-(3,3-dimethylbutanoyl)piperazin-1-yl)-2-methoxyphenylamino)pyrimidin-4-yloxy)phenyl)acrylamide], the IC50 in assay [1] was in the range of 100 to 300 nM. Also, the “Ratio WT/mutant (HCC827)” value in assay [2] (setting [4]) is over 20. Further, in assay [3] (setting [5]), the “Ratio WT/mutant (H1975)” value is over 1.
For the molecule `C=CC(=O)Nc1cccc(Nc2nc(Nc3ccc(N4CCN(C(C)=O)CC4)cc3OC(F)F)ncc2C(F)(F)F)c1` [Compound I-32, N-(3-(2-(4-(4-acetylpiperazin-1-yl)-2-(difluoromethoxy)phenylamino)-5-(trifluoromethyl)pyrimidin-4-ylamino)phenyl)acrylamide], in assay [1], the IC50 is under 1 nM.
